Measured values published in patent US20040097502A1, “Pyrazoles as tgf inhibitors” (priority 2001, published 2004).

Legend:
[1] = system: TGF-β signaling (PAI-1 promoter linked to firefly luciferase in HepG2 cells); test: Assay 1: PAI-1 promoter luciferase reporter assay in HepG2 cells after exposure to TGF-β; assay type: cell-based; conditions: for IC50: Homo sapiens, HepG2 cells, PAI-1 promoter-luciferase, 1 ng/mL rhTGFβ-1, read-out: IC50 value in Assay 1 (inhibition of TGF-β induced firefly luciferase activity)
Procedure: The assay was performed in HepG2 cells stably transfected with the PAI-1 promoter (known to be a strong TGF-β responsive promoter) linked to a luciferase (firefly) reporter gene. The compounds were selected on their ability to inhibit luciferase activity after exposure to TGF-β. In addition cells were transfected with a second luciferase (Renilla) gene which was not driven by a TGF-β responsive promoter and was used as a toxicity control.
(96 well-)microplates are seeded, using a multidrop apparatus, with the stably transfected cell line at a concentration of 35000 cells per well in 200 μl of serum-containing medium. These plates are placed in a cell incubator.
18 to 24 hours later (Day 2), cell-incubation procedure is launched. Cells are incubated with TGF-β and a candidate compound at concentrations in the range 50 nM to 10 μM (final concentration of DMSO 1%). The final concentration of TGF-β (rhTGFβ-1) used in the test is 1 ng/mL. Cells are incubated with a candidate compound 15-30 mins prior to the addition of TGF-β. The final volume of the test reaction is 150 μl. Each well contains only one candidate compound and its effect on the PAI-1 promoter is monitored.
Columns 11 and 12 are employed as controls. Column 11 contains 8 wells in which the cells are incubated in the presence of TGF-β, without a candidate compound. Column 11 is used to determine the ‘reference TGF-β induced firefly luciferase value’ against which values measured in the test wells (to quantify inhibitory activity) may be compared. In wells A12 to D12, cells are grown in medium without TGF-β. The firefly luciferase values obtained from these positions are representive of the ‘basal firefly luciferase activity’. In wells E12 to H12, cells are incubated in the presence of TGF-β and 500 μM CPO (Cyclopentenone, Sigma), a cell toxic compound.
12 to 18 hours later (day 3), the luciferase quantification procedure is launched. The following reactions are performed using reagents obtained from a Dual Luciferase Assay Kit (Promega). Cells are washed and lysed with the addition of 10 μl of passive lysis buffer (Promega). Following agitation (15 to 30 mins), luciferase activities of the plates are read in a dual-injector luminometer (BMG lumistar). For this purpose, 50 μl of luciferase assay reagent and 50 μl of ‘Stop & Glo’ buffer are injected sequentially to quantify the activities of both luciferases. The mean Luciferase activity value obtained in wells A11 to H11 (Column 11, TGF-β only) is considered to represent 100% and values obtained in wells A12 to D12 (cells in medium alone) give a basal level (0%). For each of the compounds tested, a concentration response curve is constructed from which an IC50 value can be determined graphically.

IC50 [1] | melting point | SMILES | firefly and renilla luciferase activities (toxicity control) ([1]; 500 μM CPO in the presence of TGF-β, % of those obtained in column 11 (TGF-β only))
 |  | O=C1C=CCC1 [CPO, Cyclopentenone, reference compound] | around 50%
≤ 5 µM | 216 °C | Clc1ccc(Nc2cc(-c3c[nH]nc3-c3ccccn3)ccn2)cc1 [Example 1] | 
≤ 5 µM | 200 °C | Fc1ccc(Nc2cc(-c3c[nH]nc3-c3ccccn3)ccn2)cc1 [Example 3] | 
≤ 5 µM | 200 °C | c1ccc(-c2n[nH]cc2-c2ccnc(NCc3ccco3)c2)nc1 [Example 4] | 
≤ 5 µM | 146 °C | CS(=O)(=O)c1cccc(Nc2cc(-c3c[nH]nc3-c3ccccn3)ccn2)c1 [Example 5] | 
≤ 5 µM | 228 °C | N#Cc1cccc(Nc2cc(-c3c[nH]nc3-c3ccccn3)ccn2)c1 [Example 6] | 
≤ 5 µM | 280 °C | COc1cc(Nc2cc(-c3c[nH]nc3-c3ccccn3)ccn2)ccc1C#N [Example 7] | 
≤ 5 µM | 115 °C | c1ccc(-c2n[nH]cc2-c2ccnc(Nc3cccc(OCCN4CCCCC4)c3)c2)nc1 [Example 8] | 
≤ 5 µM | 141 °C | c1ccc(-c2n[nH]cc2-c2ccnc(Nc3cccc(OCCN4CCCC4)c3)c2)nc1 [Example 9] | 
≤ 5 µM | 205 °C | Clc1cccc(Nc2cc(-c3c[nH]nc3-c3ccccn3)ccn2)c1 [Example 10] | 
≤ 5 µM | 194 °C | Cc1cccc(Nc2cc(-c3c[nH]nc3-c3ccccn3)ccn2)c1 [Example 11, [4-(3-Pyridin-2-yl-1H-pyrazol-4-yl)-pyridin-2-yl]-m-tolyl-amine] | 
≤ 5 µM | 224 °C | c1ccc(-c2n[nH]cc2-c2ccnc(Nc3ccc(OCCN4CCCC4)cc3)c2)nc1 [Example 12, [4-(3-Pyridin-2-yl-1H-pyrazol-4-yl)-pyridin-2-yl]-[4-(2-pyrrolidin-1-yl-ethoxy)-phenyl]-amine] | 
≤ 5 µM | 210 °C | COc1ccc(Nc2cc(-c3c[nH]nc3-c3ccccn3)ccn2)cc1OC [Example 13, (3,4-Dimethoxy-phenyl)-[4-(3-pyridin-2-yl-1H-pyrazol-4-yl)-pyridin-2-yl]-amine] | 
≤ 5 µM | 212 °C | Cc1cc(Nc2cc(-c3c[nH]nc3-c3ccccn3)ccn2)ccc1Cl [Example 14, (4-Chloro-3-methyl-phenyl)-[4-(3-pyridin-2-yl-1H-pyrazol-4-yl)-pyridin-2-yl]-amine] | 
≤ 5 µM | 250 °C | N#Cc1cc(Nc2cc(-c3c[nH]nc3-c3ccccn3)ccn2)ccc1Cl [Example 15, 2-Chloro-5-[4-(3-pyridin-2-yl-1H-pyrazol-4-yl)-pyridin-2-ylamino]-benzonitrile] | 
≤ 5 µM | 268 °C | Oc1ccc(Nc2cc(-c3c[nH]nc3-c3ccccn3)ccn2)cc1 [Example 16, 4-[4-(3-Pyridin-2-yl-1H-pyrazol-4-yl)-pyridin-2-ylamino]-phenol] | 
≤ 5 µM | 219 °C | COc1ccc(Nc2cc(-c3c[nH]nc3-c3ccccn3)ccn2)cc1 [Example 17, (4-Methoxy-phenyl)-[4-(3-pyridin-2-yl-1H-pyrazol-4-yl)-pyridin-2-yl]-amine] | 
≤ 5 µM | 221 °C | Cc1ccc(Nc2cc(-c3c[nH]nc3-c3ccccn3)ccn2)cc1 [Example 18, [4-(3-Pyridin-2-yl-1H-pyrazol-4-yl)-pyridin-2-yl]-p-tolyl-amine] | 
≤ 5 µM | 102.8 °C | FC(F)(F)Oc1cccc(Nc2cc(-c3c[nH]nc3-c3ccccn3)ccn2)c1 [Example 19, [4-(3-Pyridin-2-yl-1H-pyrazol-4-yl)-pyridin-2-yl]-(3-trifluoromethoxy-phenyl)-amine] | 
≤ 5 µM | 220 °C | Cc1ccc(Nc2cc(-c3c[nH]nc3-c3ccccn3)ccn2)cc1C [Example 20, (3,4-Dimethyl-phenyl)-[4-(3-pyridin-2-yl-1H-pyrazol-4-yl)-pyridin-2-yl]-amine] | 
≤ 5 µM | 207 °C | FC(F)(F)c1ccc(Nc2cc(-c3c[nH]nc3-c3ccccn3)ccn2)cc1 [Example 21, [4-(3-Pyridin-2-yl-1H-pyrazol-4-yl)-pyridin-2-yl]-(4-trifluoromethyl-phenyl)-amine] | 
≤ 5 µM | 218 °C | CC(C)Oc1cccc(Nc2cc(-c3c[nH]nc3-c3ccccn3)ccn2)c1 [Example 22, (3-Isopropoxy-phenyl)-[4-(3-pyridin-2-yl-1H-pyrazol-4-yl)-pyridin-2-yl]-amine] | 
≤ 5 µM | 134 °C | CS(=O)(=O)c1ccc(Nc2cc(-c3c[nH]nc3-c3ccccn3)ccn2)cc1 [Example 23, (4-Methanesulfonyl-phenyl)-[4-(3-pyridin-2-yl-1H-pyrazol-4-yl)-pyridin-2-yl]-amine] | 
≤ 5 µM | 125 °C | COc1cc(Nc2cc(-c3c[nH]nc3-c3cccc(C)n3)ccn2)ccc1C#N [Example 24, 2-Methoxy-4-{4-[3-(6-methyl-pyridin-2-yl)-1H-pyrazol-4-yl]-pyridin-2-ylamino}-benzonitrile] | 
≤ 5 µM | 240 °C | O=C(c1ccc(Nc2cc(-c3c[nH]nc3-c3ccccn3)ccn2)cc1)N1CCOCC1 [Example 25, Morpholin-4-yl-{4-[4-(3-pyridin-2-yl-1H-pyrazol-4-yl)-pyridin-2-ylamino]-phenyl}methanone] | 
≤ 5 µM | 200 °C | CN1CCN(C(=O)c2ccc(Nc3cc(-c4c[nH]nc4-c4ccccn4)ccn3)cc2)CC1 [Example 26, (4-Methyl-piperazin-1-yl)-{4-[4-(3-pyridin-2-yl-1H-pyrazol-4-yl)-pyridin-2-ylamino]-phenyl}-methanone] | 
≤ 5 µM | 176 °C | c1ccc(-c2n[nH]cc2-c2ccnc(Nc3ccc(OCCN4CCCCC4)cc3)c2)nc1 [Example 27, [4-(2-Piperidin-1-yl-ethoxy)phenyl]-[4-(3-pyridin-2-yl-1H-pyrazol-4-yl)-pyridin-2-yl]-amine] | 
≤ 5 µM | 120 °C | Cn1ccnc1COc1cccc(Nc2cc(-c3c[nH]nc3-c3ccccn3)ccn2)c1 [Example 28, [3-(1-Methyl-1H-imidazol-2-ylmethoxy)-phenyl]-[4-(3-pyridin-2-yl-1H-pyrazol-4-yl)-pyridin-2-yl]-amine] | 
